From patent US20090247589A1, “Monocarboxylates for modifying macrophage function” (The Brigham and Women's Hospital, Inc., priority 2006, published 2009)

Key:
RAW 264.7 cells [1] = assay: Proinflammatory cytokine production by RAW 264.7 cells stimulated with IFN-γ plus uric acid; assay type: cell-based, murine
RAW 264.7 cells [2] = settings: MTT assay
Procedure: (§1) The dose of nicotinic acid was 60-80 μmol/kg/day, corresponding to 500-1000 mg of nicotinic acid in a 70 kg human (depending on bioavailability).

cardiac graft = settings: continuous infusion by osmotic minipumps for 4 weeks; 60-80 μmol/kg/day; outliers excluded
Procedure: as §1

RAW 264.7 cells [3] = settings: LPS-stimulated RAW 264.7 cells; concomitant administration

| SMILES | production of proinflammatory cytokines such as TNF-α (stimulating effect) (RAW 264.7 cells [1]; uric acid together with other macrophage stimulators such as IFN-γ) | abrogation of uric acid + IFN-γ stimulated production of proinflammatory cytokines such as TNF-α (RAW 264.7 cells [1]; concomitant administration) | effect on cell proliferation (RAW 264.7 cells [2]) | graft condition (histology) compared to saline-treated controls (cardiac graft) | production of IL-6 (RAW 264.7 cells [3]) | production of TNF-α (RAW 264.7 cells [3]) |
| --- | --- | --- | --- | --- | --- | --- |
| O=c1[nH]c(=O)c2[nH]c(=O)[nH]c2[nH]1 [uric acid] | synergistically, further stimulating production | – | – | – | – | – |
| O=C(O)c1cccnc1 [nicotinic acid] | – | largely abrogated | nor nicotinic acid have any significant effect | near normal grafts | significantly reduced | significantly reduced |
